Series [1] in a line: viscosity, Rheomat RM 180 rheometer. The class given is physicochemical. Conditions: at 20°C; 1500 shear rate for 5 min. On the procedure:
The viscosity is measured using a Rheomat RM 180 rheometer. The sample analysed has a temperature between 20-25°C. The settings for the viscosity test are: bob 9, tube 1, 1500 shear rate for 5 min. (300 sec.).

Series [2] is described as follows: index of diffusion (spreading value), in vivo test on the forearm. The note with it: 4 mg on the forearm; 23°C; relative humidity 60%; ten minutes after application. On the procedure: The index of diffusion of a compound is defined as the area (in mm^2) of a skin surface covered by said compound in a specific period of time.
The method used to determine the index of diffusion of a liquid component is an in vivo test. This method consists in applying 4 mg of the component to be analysed on the front forearm of an individual. For each component, 4 separate applications were carried out on the same individual. The test is carried out at a temperature of 23°C and at a relative humidity of 60%. Ten minutes after application of a sample on the forearm the area of diffusion was photographed and measured.

SMILES strings stand for the structures.

`CCCCCCCCOCCCCCCCC` [Dicaprylyl ether] had a Viscosity in series [1] of 4 mPa·s. The Index of diffusion in series [2] was found to be 1600 mm^2/10 min.

For the origin of these results see patent EP3967293A1, “COMPOSITION BASED ON VITAMIN E FOR TOPIC USE” (Sigla S.r.l., priority 2020, dated 2022).
